Data taken from US9522913B2, “Pesticidally active bicyclic heterocycles with sulphur containing substituents” (Syngenta Participations AG, priority 2013, dated 2016).

What was measured:
Type in all cases: in vivo
[1] = tested on: Diabrotica balteata (corn root worm); assay: Activity against Diabrotica balteata, larvicide, feeding/residual contact activity, preventive (Example B2); conditions: 120 h, maize sprouts sprayed, L2 larvae, 5 days incubation, read-out: activity (larval mortality, growth regulation)
Protocol: (§1) (Larvicide, Feeding/Residual Contact Activity, Preventive)
Maize sprouts, placed on an agar layer in 24-well micro titer plates (MTP) are treated with test solutions by spraying. After drying, the MTPs are infested with larvae (L2, 6-10 per well). After an incubation period of 5 days, samples are checked for larval mortality, and growth regulation.

[2] = tested on: Spodoptera littoralis (Egyptian cotton leaf worm); assay: Activity against Spodoptera littoralis, larvicide, feeding/residual contact activity, preventive (Example B1); conditions: foliar, 72 h, cotton leaf discs sprayed, L1 larvae, 3 days after treatment, read-out: activity (mortality, repellent effect, feeding behaviour, growth regulation)
Excerpt: (Larvicide, Feeding/Residual Contact Activity, Preventive) Cotton leaf discs are placed on agar in a 24-well microtiter plate and sprayed with test solutions. After drying, the leaf discs are infested with 5 L1 larvae. The samples are checked for mortality, repellent effect, feeding behaviour, and growth regulation 3 days after treatment (DAT).

[3] = tested on: Spodoptera littoralis (Egyptian cotton leaf worm); assay: Activity against Spodoptera littoralis, systemic activity (Example B3); conditions: 120 h, systemic via lettuce roots in agar, 5 days after infestation, read-out: activity (mortality, repellent effect, feeding behavior, growth regulation)
Excerpt: Test compounds were applied by pipette into 24 well plates and mixed with agar. Lettuce seeds were placed on the agar and the multi well plate is closed by another plate which contains also agar. After 7 days the roots have absorbed the compound and the lettuce has grown into the lid plate. The lettuce leaves were now cut off into the lid plate. Spodoptera eggs were pipetted through a plastic stencil on a humid gel blotting paper and the plate closed with it. The samples are checked for mortality, repellent effect, feeding behavior, and growth regulation 5 days after infestation.

[4] = tested on: Myzus persicae (green peach aphid); assay: Activity against Myzus persicae, systemic/feeding activity, curative, mixed population (Example B6); conditions: 144 h, roots of infested pea seedlings in test solution, 6 days after introduction
Excerpt: (Systemic/Feeding Activity, Curative), Mixed Population
Roots of pea seedlings, infested with an aphid population of mixed ages, were placed directly in the test solutions. 6 days after introduction, samples were checked for mortality and special effects on the plant.

[5] = tested on: Myzus persicae (green peach aphid); assay: Activity against Myzus persicae, feeding/residual contact activity, preventive, mixed population (Example B5); conditions: foliar, 144 h, sunflower leaf discs sprayed, mixed-age aphids, 6 DAT
Protocol: (Feeding/Residual Contact Activity, Preventive), Mixed Population
Sunflower leaf discs were placed on agar in a 24-well microtiter plate and sprayed with test solutions.
After drying, the leaf discs were infested with an aphid population of mixed ages. After an incubation period of 6 DAT, samples were checked for mortality and special effects (e.g. phytotoxicity).

[6] = tested on: Aedes aegypti (yellow fever mosquito); assay: whole plant or invertebrate; conditions: after 48 h, application rate of 200 ppm in ethanol, adult females, read-out: control of Aedes aegypti (mortality)
Protocol: Test solutions, at an application rate of 200 ppm in ethanol, were applied to 12-well tissue culture plates. Once the deposits were dry, five, two to five days old adult female Aedes aegypti were added to each well, and sustained with a 10% sucrose solution in a cotton wool plug. Assessment of knockdown was made one hour after introduction, and mortality was assessed at 24 and 48 hours after introduction.

[7] = tested on: Plutella xylostella (diamond back moth); assay: Activity against Plutella xylostella, larvicide, feeding/residual contact activity, preventive (Example B4); conditions: 120 h, artificial diet, L2 larvae, 5 days incubation, read-out: activity (larval mortality, antifeedant, growth regulation)
Protocol: as §1
24-well microtiter plate (MTP) with artificial diet was treated with test solutions by pipetting. After drying, the MTPs were infested with L2 larvae (10-15 per well). After an incubation period of 5 days, samples were checked for larval mortality, antifeedant and growth regulation.

[8] = tested on: Rhopalosiphum padi (bird cherry oat aphid); assay: Seed treatment activity against Rhopalosiphum padi on barley (Example B8); conditions: after 28 days, initial loading of 0.3 mg a.i. per seed
Protocol: Seed Treatment Activity Against Rhopalosiphum padi (Bird Cherry Oat Aphid) (Seed Treatment Systemic/Feeding Activity on Barley, Preventive, Initial and Residual Activity (Infestation 2 and 4 Weeks after Sowing)), Mixed Population
A treated barley seed is sown in a 350 ml pot filled with soil. Two weeks after sowing phytotoxicity is estimated and expressed in percentage compared to the control. Furthermore the barley seedling is infested with an aphid population of mixed stages. After an incubation period of seven days the grade of efficacy compared to the control is estimated and expressed in percentage. Treatments with all replicates having a level of efficacy over 90% are re-infested with aphids 28 days after sowing for determination of residual activity. Assessment procedures remain the same as described above.

[9] = tested on: Bemisia tabaci (cotton white fly); assay: Activity against Bemisia tabaci, adulticide contact activity, preventative (Example B7); conditions: foliar, 168 h, cotton leaf discs sprayed, adult white flies, 7 DAT
Protocol: (Adulticide Contact Activity, Preventative), Adult
Cotton leaf discs were placed on agar in a 24-well microtiter plate and sprayed with test solutions. After drying, the leaf discs were infested with adult white flies. After an incubation period of 7 DAT, samples were checked for mortality and special effects (e.g. phytotoxicity).

Compound	mortality at 400 ppm [1] [%]	mortality at 400 ppm [2] [%]	mortality at 12.5 ppm [3] [%]	mortality at 24 ppm [4] [%]	mortality at 400 ppm [5] [%]	mortality at 200 ppm [6] [%]	mortality at 400 ppm [7] [%]	control of Rhopalosiphum padi (efficacy compared to the control) [8]	mortality at 400 ppm [9] [%]
CC/S(=N\C#N)c1cc(C(F)(F)F)cnc1-c1nc2cc(C(F)(F)F)cnc2n1C (stereo not shown) [P1.1, [ethyl-[2-[3-methyl-6-(trifluoromethyl)imidazo[4,5-b]pyridin-2-yl]-5-(trifluoromethyl)-3-pyridyl]-λ^4-sulfanylidene]cyanamide]	> 80	–	–	–	–	–	–	–	–
CCS(=O)(=NC#N)c1cc(C(F)(F)F)cnc1-c1nc2cc(C(F)(F)F)cnc2n1C (stereo not shown) [P1.2, [ethyl-[2-[3-methyl-6-(trifluoromethyl)imidazo[4,5-b]pyridin-2-yl]-5-(trifluoromethyl)-3-pyridyl]-oxo-λ^6sulfanylidene]cyanamide]	> 80	> 80	–	–	–	–	–	–	–
CCS(=O)(=NC(=O)C(F)(F)F)c1cc(C(F)(F)F)cnc1-c1nc2cc(C(F)(F)F)cnc2n1C (stereo not shown) [P1.3, N-[ethyl-[2-[3-methyl-6-(trifluoromethyl)imidazo[4,5-b]pyridin-2-yl]-5-(trifluoromethyl)-3-pyridyl]-oxo-λ^6-sulfanylidene]-2,2,2-trifluoro-acetamide]	> 80	> 80	≥ 80	≥ 80	> 80	≥ 80	> 80	–	–
CCS(=N)(=O)c1cc(C(F)(F)F)cnc1-c1nc2cc(C(F)(F)F)cnc2n1C (stereo not shown) [P1.4, ethyl-imino-[2-[3-methyl-6-(trifluoromethyl)imidazo[4,5-b]pyridin-2-yl]-5-(trifluoromethyl)-3-pyridyl]-oxo-λ^6-sulfane]	–	> 80	≥ 80	≥ 80	> 80	–	> 80	at least 80%	> 80
CCS(=O)(=NC(N)=O)c1cc(C(F)(F)F)cnc1-c1nc2cc(C(F)(F)F)cnc2n1C (stereo not shown) [P1.5, [ethyl-[2-[3-methyl-6-(trifluoromethyl)imidazo[4,5-b]pyridin-2-yl]-5-(trifluoromethyl)-3-pyridyl]-oxo-λ^6sulfanylidene]urea]	> 80	–	–	–	–	≥ 80	–	–	–
CCS(=O)(=NC)c1cc(C(F)(F)F)cnc1-c1nc2cc(C(F)(F)F)cnc2n1C (stereo not shown) [P1.6, ethyl-methylimino-[2-[3-methyl-6-(trifluoromethyl)imidazo[4,5-b]pyridin-2-yl]-5-(trifluoromethyl)-3-pyridyl]-oxo-λ^6-sulfane]	> 80	> 80	≥ 80	≥ 80	> 80	≥ 80	> 80	–	> 80
CCC(=O)N=S(=O)(CC)c1cc(C(F)(F)F)cnc1-c1nc2cc(C(F)(F)F)cnc2n1C (stereo not shown) [P1.7, N-[ethyl-[2-[3-methyl-6-(trifluoromethyl)imidazo[4,5-b]pyridin-2-yl]-5-(trifluoromethyl)-3-pyridyl]-oxo-λ^6-sulfanylidene]propanamide]	–	> 80	≥ 80	–	> 80	≥ 80	> 80	–	> 80
CCS(=O)(=NC(=O)OC)c1cc(C(F)(F)F)cnc1-c1nc2cc(C(F)(F)F)cnc2n1C (stereo not shown) [P1.8, methyl N-[ethyl-[2-[3-methyl-6-(trifluoromethyl)imidazo[4,5-b]pyridin-2-yl]-5-(trifluoromethyl)-3-pyridyl]-oxo-λ^6-sulfanylidene]carbamate]	–	> 80	≥ 80	≥ 80	> 80	≥ 80	> 80	–	> 80
CCS(=O)(=NC=O)c1cc(C(F)(F)F)cnc1-c1nc2cc(C(F)(F)F)cnc2n1C (stereo not shown) [P1.10, N-[ethyl-[2-[3-methyl-6-(trifluoromethyl)imidazo[4,5-b]pyridin-2-yl]-5-(trifluoromethyl)-3-pyridyl]-oxo-λ^6sulfanylidene]formamide]	–	> 80	≥ 80	≥ 80	> 80	–	> 80	–	> 80
